Read-outs that look alike come from different tables or passages of the source.
Target: T1, recombinant human Syk (GST-hSyk fusion protein) (Homo sapiens, UniProt P43405)
T1 construct: purchased Carna Biosciences 08-176
Experiment: Homogeneous Time-Resolved Fluorescence (HTRF) assay for the recombinant human Syk enzyme
Assay type: biochemical
Conditions: 10-dose titration, 25 μM ATP
Summary of the method: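 GST-hSyk (5 pM) preincubated 10 min with compound (0.1% DMSO) in 15 mM Tris-HCl pH 7.5, 2 mM DTT; reaction started with 250 nM biotinylated peptide, 5 mM Mg, 25 μM ATP, 45 min, room temperature. EDTA quench, Eu-anti-phosphotyrosine/SA-APC HTRF read after 30 min; IC50 from 10-dose titration (10 μM–0.508 nM), four-parameter fit.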

[1] = IC50 class, read-out: rhSYK Activity

Row | IC50 [1] | IC50 (read-out: rhSYK IC50) | Molecule
1 | ≤ 100 nM |  | Cc1cc(Nc2nccc(C(F)F)n2)cc(-c2cnn(CC3OC(=O)NC3C)c2)c1 (single isomer, unassigned) [Example 23.10, 5-{[4-(3-{[4-(difluoromethyl)pyrimidin-2-yl]amino}-5-methylphenyl)-1H-pyrazol-1-yl]methyl}-4-methyl-1,3-oxazolidin-2-one]
2 | ≤ 100 nM |  | Cc1cc(Nc2nccc(C(F)F)n2)cc(-c2cnn(CC3OC(=O)NC3C3CC3)c2)c1 (single isomer, unassigned) [Example 23.19, 4-cyclopropyl-5-{[4-(3-{[4-(difluoromethyl)pyrimidin-2-yl]amino}-5-methylphenyl)-1H-pyrazol-1-yl]methyl}-1,3-oxazolidin-2-one]
3 | ≤ 100 nM |  | Cc1cc(Nc2nccc(C(F)F)n2)cc(-c2cnn(CC(C)(C)NC(=O)NCC3CCOCC3)c2)c1 [Example 27.9, 1-{2-[4-(3-{[4-(difluoromethyl)pyrimidin-2-yl]amino}-5-methylphenyl)-1H-pyrazol-1-yl]-1,1-dimethylethyl}-3-(tetrahydro-2H-pyran-4-ylmethyl)urea]
4 | ≤ 100 nM |  | Cc1cc(Nc2nccc(C)n2)cc(-c2cnn(C[C@H](O)C(=O)O)c2)c1 [Example 11.3, (2S)-2-hydroxy-3-(4-{3-methyl-5-[(4-methylpyrimidin-2-yl)amino]phenyl}-1H-pyrazol-1-yl)-propanoic acid]
5 | ≤ 100 nM | 5.9 nM | Cc1cc(Nc2nccc(C(F)F)n2)cc(-c2cnn(C3CCC(C)(C)C(O)C3(C)O)c2)c1 (stereo not drawn) [Example 22.8, 6-[4-(3-{[4-(difluoromethyl)pyrimidin-2-yl]amino}-5-methylphenyl)-1H-pyrazol-1-yl]-1,3,3-trimethylcyclohexane-1,2-diol]
6 | ≤ 100 nM |  | Cc1cc(Nc2nccc(C(F)(F)F)n2)cc(-c2cnn(CC3OC(=O)NC3C(C)C)c2)c1 (single isomer, unassigned) [Example 23.5, 4-(1-methylethyl)-5-{[4-(3-methyl-5-{[4-(trifluoromethyl)pyrimidin-2-yl]amino}phenyl)-1H-pyrazol-1-yl]methyl}-1,3-oxazolidin-2-one]
7 | ≤ 100 nM |  | Cc1cc(Nc2nccc(C(F)(F)F)n2)cc(-n2cc(C(C)(O)[C@H]3CC[C@H](C(=O)O)CC3)cn2)c1 (stereo partly drawn) [Example 19.12, trans-4-{1-hydroxy-1-[1-(3 methyl-5-{[4-(trifluoromethyl)pyrimidin-2-yl]amino}phenyl)-1H-pyrazol-4-yl]ethyl}cyclohexanecarboxylic acid]
8 | ≤ 100 nM | 2.6 nM | Cc1cc(Nc2nccc(C(F)F)n2)cc(-c2cnn(C3CCCCC(O)C3O)c2)c1 (stereo not drawn) [Example 22.15, 3-[4-(3-{[4-(difluoromethyl)pyrimidin-2-yl]amino}-5-methylphenyl)-1H-pyrazol-1-yl]cycloheptane-1,2-diol]
9 | ≤ 100 nM |  | COCCOC(=O)NCCn1cc(-c2cc(C)cc(Nc3nccc(C(F)F)n3)c2)cn1 [Example 27.3, 2-methoxyethyl {2-[4-(3-{[4-(difluoromethyl)pyrimidin-2-yl]amino}-5-methylphenyl)-1H-pyrazol-1-yl]ethyl}carbamate]
10 | ≤ 100 nM |  | Cc1cc(Nc2ncc(F)c(C(F)F)n2)cc(-c2cnn(CC3OC(=O)NC3C)c2)c1 (single isomer, unassigned) [Example 23.21, 5-{[4-(3-{[4-(difluoromethyl)-5-fluoropyrimidin-2-yl]amino}-5-methylphenyl)-1H-pyrazol-1-yl]methyl}-4-methyl-1,3-oxazolidin-2-one]

The next lines start with the molecule.

Row | Molecule | IC50 [1] | IC50 (read-out: rhSYK IC50)
11 | Cc1cc(Nc2nccc(C(F)(F)F)n2)cc(-c2cnn(CC(O)c3ccc(C(=O)O)cc3)c2)c1 (stereo not drawn) [Example 3.53, 4-{1-hydroxy-2-[4-(3-methyl-5-{[4-(trifluoromethyl)pyrimidin-2-yl]amino}-phenyl)-1H-pyrazol-1-yl]ethyl}benzoic acid] | ≤ 100 nM | 
12 | CC(=O)Cn1cc(-c2cc(C)cc(Nc3nccc(C(F)(F)F)n3)c2)cn1 [Example 3.22, 1-[4-(3-methyl-5-{[4-(trifluoromethyl)pyrimidin-2-yl]amino}phenyl)-1H-pyrazol-1-yl]propan-2-one] | ≤ 100 nM | 
13 | Cc1cc(Nc2nccc(C(F)(F)F)n2)cc(-c2cnn(C[C@H](O)C(=O)O)c2)c1 [Example 5.17, (2S)-2-hydroxy-3-[4-(3-methyl-5-{[4-(trifluorometh-yl)pyrimidin-2-yl]amino}-phenyl)-1H-pyrazol-1-yl]propanoic acid] | ≤ 100 nM | 
14 | Cc1cc(Nc2nccc(C(F)F)n2)cc(-c2cnn(CCC(N)=O)c2)c1 [Example 2.9, 3-[4-(3-{[4-(difluoromethyl)pyrimidin-2-yl]amino}-5-methylphenyl)-1H-pyrazol-1-yl]propanamide] | ≤ 100 nM | 
15 | Cc1cc(Nc2nccc(C(F)(F)F)n2)cc(-c2cn[nH]c2)n1 [Example 1.44, N-[2-methyl-6-(1H-pyrazol-4-yl)pyridin-4-yl]-4-(trifluoro-methyl)pyrimidin-2-amine] | 100 to 1000 nM | 
16 | O=C(O)CCn1cc(-c2cccc(Nc3cc(C(F)(F)F)ccn3)n2)cn1 [Example 1.19, 3-[4-(6-{[4-(trifluoromethyl)pyridin-2-yl]amino}pyridin-2-yl)-1H-pyrazol-1-yl]propanoic acid] | ≤ 100 nM | 
17 | Cc1cc(Nc2nccc(C(F)(F)F)n2)cc(-c2cnn(CC3OC(=O)NC3C)c2)c1 (stereo not drawn) [Example 3.119, 4-methyl-5-{[4-(3-methyl-5-{[4-(trifluoromethyl)pyrimidin-2-yl]amino}phenyl)-1H-pyrazol-1-yl]methyl}-1,3-oxazolidin-2-one] | ≤ 100 nM | 
18 | Cc1cc(Nc2ncc(Cl)c(C)n2)cc(-c2cnn(CC3CNC(=O)O3)c2)c1 (stereo not drawn) [Example 2.26, 5-[(4-{3-[(5-chloro-4-methylpyrimidin-2-yl)amino]-5-methylphenyl}-1H-pyrazol-1-yl)methyl]-1,3-oxazolidin-2-one] | ≤ 100 nM | 
19 | Cc1cc(Nc2nccc(C(F)F)n2)cc(-c2cnn(Cc3[nH]cnc3C)c2)c1 [Example 3.109, 4-(difluoromethyl)-N-(3-methyl-5-{1-[(4-methyl-1H-imidazol-5-yl)methyl]-1H-pyrazol-4-yl}phenyl)pyrimidin-2-amine] | ≤ 100 nM | 
20 | Cc1cc(Nc2nccc(C(F)F)n2)cc(-c2cnn(CC3CC(=O)NC34CC4)c2)c1 (stereo not drawn) [Example 3.90, 7-{[4-(3-{[4-(difluoromethyl)pyrimidin-2-yl]amino}-5-methylphenyl)-1H-pyrazol-1-yl]methyl}-4-azaspiro[2.4]heptan-5-one] | ≤ 100 nM | 
21 | 1-[4-(3-methyl-5-{[4-(trifluoro-ethyl)pyrimidin-2-yl]amino}-phenyl)-1H-pyrazol-1-yl]-3-morpholin-4-ylpropan-2-ol [Example 5.10] | ≤ 100 nM | 
22 | Cc1cc(Nc2nccc(C(F)(F)F)n2)cc(-c2cnn(CCCC(=O)O)c2)c1 [Example 3.50, 4-[4-(3-methyl-5-{[4-(trifluoromethyl)-pyrimidin-2-yl]amino}-phenyl)-1H-pyrazol-1-yl]butanoic acid] | ≤ 100 nM | 
23 | Cc1ccnc(Nc2cccc(-c3cnn(CC4CNC(=O)O4)c3)c2)n1 (stereo not drawn) [Example 2.16, 5-[(4-{3-[(4-methylpyrimidin-2-yl)amino]phenyl}-1H-pyrazol-1-yl)methyl]-1,3-oxazolidin-2-one] | 100 to 1000 nM | 
24 | Cc1cc(Nc2nccc(C(F)(F)F)n2)cc(-c2cnn(CC3OC(=O)NC3C)c2)c1 (stereo not drawn) [Example 3.120, 4-methyl-5-{[4-(3-methyl-5-{[4-(trifluoromethyl)pyrimidin-2-yl]amino}phenyl)-1H-pyrazol-1-yl]methyl}-1,3-oxazolidin-2-one] | ≤ 100 nM | 
25 | Cc1cc(Nc2nccc(C(F)F)n2)cc(-c2cnn(CC(O)CC3COC(=O)C3)c2)c1 (stereo not drawn) [Example 5.28, 4-{3-[4-(3-{[4-(difluoromethyl)pyrimidin-2-yl]amino}-5-methylphenyl)-1H-pyrazol-1-yl]-2-hydroxypropyl}dihydrofuran-2(3H)-one] | ≤ 100 nM | 
26 | Cc1cc(Nc2nccc(C(F)F)n2)cc(-c2cnn(C(C[C@@H](C)O)[C@@H](C)O)c2)c1 (stereo in doubt) [Example 2.52, 3-[4-(3-{[4-(difluoromethyl)pyrimidin-2-yl]amino}-5-methylphenyl)-1H-pyrazol-1-yl]hexane-2,5-diol] | ≤ 100 nM | 
27 | Cc1cc(Nc2nccc(C(F)(F)F)n2)cc(-c2cnn(CCS(N)(=O)=O)c2)c1 [9.2] | ≤ 100 nM | 
28 | Cc1cc(Nc2nccc(C(F)(F)F)n2)cc(-c2cnn(CC(O)C(F)(F)F)c2)c1 (single isomer, unassigned) [Example 3.45, 1,1,1-trifluoro-3-[4-(3-methyl-5-{[4-(trifluoromethyl)pyrimidin-2-yl]amino}phenyl)-1H-pyrazol-1-yl]propan-2-ol] | ≤ 100 nM | 
29 | 6-methyl-2-(1H-pyrazol-4-yl)-N-[4-(trifluoro-methyl)pyridin-2-yl]pyrimidin-4-amine [Example 1.41] | ≤ 100 nM | 
30 | Cc1cc(Nc2nccc(C(F)(F)F)n2)cc(-c2cnn(C[C@H](O)C(=O)NCCO)c2)c1 [Example 6.1, (2S)-2-hydroxy-N-(2-hydroxyethyl)-3-[4-(3-methyl-5-{[4-(trifluoromethyl)pyrimidin-2-yl]amino}phenyl)-1H-pyrazol-1-yl]propanamide] | ≤ 100 nM | 21.1 nM
31 | Cc1cc(Nc2nccc(C(F)F)n2)cc(-c2cnn(C[C@@H]3CNCCO3)c2)c1 [Example 2.83, 4-(difluoromethyl)-N-(3-methyl-5-{1-[(2S)-morpholin-2-ylmethyl]-1H-pyrazol-4-yl}phenyl)pyrimidin-2-amine] | ≤ 100 nM | 
32 | Cc1cc(Nc2ncc(Cl)c(C)n2)cc(-c2cnn(CCC(N)=O)c2)c1 [Example 2.13, 3-(4-{3-[(5-chloro-4-methylpyrimidin-2-yl)amino]-5-methylphenyl}-1H-pyrazol-1-yl)propanamide] | ≤ 100 nM | 
33 | Cc1cc(Nc2nccc(C(F)(F)F)n2)cc(-c2c[nH]nc2C)c1 [Example 2.39, N-[3-methyl-5-(3-methyl-1H-pyrazol-4-yl)phenyl]-4-(trifluoromethyl)pyrimidin-2-amine] | 100 to 1000 nM | 
